Measurements reported in ChEMBL document CHEMBL4177580, “New 5-HT1A, 5HT2A and 5HT2C receptor ligands containing a picolinic nucleus: Synthesis, in vitro and in vivo pharmacological evaluation” (Bioorg Med Chem, 2017).

What was measured:
[1] = target: 5-hydroxytryptamine receptor 2A (Rattus norvegicus, UniProt P14842); assay: Displacement of [3H]ketanserin from serotonin 5-HT2A receptor in Sprague-Dawley rat brain cortex homogenates incubated for 15 mins by liquid scintillation spectrometry
[2] = target: T1, 5-hydroxytryptamine receptor 2C (Rattus norvegicus, UniProt P08909); assay: Displacement of [3H]mesulergine from serotonin 5-HT2C receptor in Sprague-Dawley rat brain cortex homogenates incubated for 15 mins by liquid scintillation spectrometry
T1 sequence (P08909 whole entry): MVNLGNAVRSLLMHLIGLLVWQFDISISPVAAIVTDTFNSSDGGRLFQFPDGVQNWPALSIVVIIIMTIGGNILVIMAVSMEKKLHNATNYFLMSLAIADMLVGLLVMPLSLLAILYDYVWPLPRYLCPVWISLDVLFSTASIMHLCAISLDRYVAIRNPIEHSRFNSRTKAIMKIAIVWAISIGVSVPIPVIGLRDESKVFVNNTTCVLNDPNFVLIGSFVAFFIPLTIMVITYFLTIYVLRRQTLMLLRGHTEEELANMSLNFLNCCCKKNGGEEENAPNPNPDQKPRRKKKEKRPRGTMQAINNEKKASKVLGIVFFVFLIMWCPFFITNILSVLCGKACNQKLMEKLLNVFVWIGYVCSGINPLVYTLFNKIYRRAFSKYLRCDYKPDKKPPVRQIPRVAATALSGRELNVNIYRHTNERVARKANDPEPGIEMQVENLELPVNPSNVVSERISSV

[3] = target: T2, 5-hydroxytryptamine receptor 1A (Rattus norvegicus, UniProt P19327); assay: Displacement of [3H]-8-OH-DPAT from serotonin 5-HT1A receptor in Sprague-Dawley rat brain cortex homogenates incubated for 30 mins by liquid scintillation spectrometry
T2 sequence (P19327 whole entry): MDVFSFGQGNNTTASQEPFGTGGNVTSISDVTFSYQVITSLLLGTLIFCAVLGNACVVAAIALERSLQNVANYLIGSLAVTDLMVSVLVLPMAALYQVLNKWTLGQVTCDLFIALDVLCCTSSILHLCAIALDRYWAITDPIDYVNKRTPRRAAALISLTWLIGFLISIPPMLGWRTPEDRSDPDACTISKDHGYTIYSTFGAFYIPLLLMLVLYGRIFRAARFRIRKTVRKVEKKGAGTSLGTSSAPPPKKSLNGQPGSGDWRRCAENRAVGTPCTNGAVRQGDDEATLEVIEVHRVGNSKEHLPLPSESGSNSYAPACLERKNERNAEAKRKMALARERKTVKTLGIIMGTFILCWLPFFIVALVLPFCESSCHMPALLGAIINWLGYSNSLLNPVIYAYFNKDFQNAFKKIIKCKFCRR

Sequence of 5-hydroxytryptamine receptor 2A (P14842 whole entry): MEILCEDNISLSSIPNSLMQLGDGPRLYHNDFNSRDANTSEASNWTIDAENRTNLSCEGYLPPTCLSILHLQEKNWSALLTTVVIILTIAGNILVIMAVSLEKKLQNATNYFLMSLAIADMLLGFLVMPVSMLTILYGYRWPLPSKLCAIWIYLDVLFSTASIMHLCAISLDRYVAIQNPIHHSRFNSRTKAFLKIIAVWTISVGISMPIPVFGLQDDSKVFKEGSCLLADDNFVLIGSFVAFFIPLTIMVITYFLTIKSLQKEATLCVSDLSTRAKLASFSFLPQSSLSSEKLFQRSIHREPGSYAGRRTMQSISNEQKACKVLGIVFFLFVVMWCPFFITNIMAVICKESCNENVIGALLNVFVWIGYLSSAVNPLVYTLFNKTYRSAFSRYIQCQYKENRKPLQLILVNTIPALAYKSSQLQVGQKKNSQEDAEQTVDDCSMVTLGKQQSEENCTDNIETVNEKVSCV

Compound | Ki [1] | Ki [2] | Ki [3]
O=C(NCCCN1CCN(c2ccc(F)cc2)CC1)c1ccccn1 | 161 nM | 11.7 nM | > 10000 nM
N#Cc1ccccc1N1CCN(CCCNC(=O)c2ccccn2)CC1 | > 10000 nM | 128 nM | 108 nM
O=C(NCCCN1CCN(c2ccccc2F)CC1)c1ccccn1 | 327 nM | > 10000 nM | 230 nM
Cc1cccc(N2CCN(CCCNC(=O)c3ccccn3)CC2)c1C | > 10000 nM | 105 nM | 88.7 nM
O=C(NCCCN1CCN(c2ccccc2Cl)CC1)c1ccccn1 | 763 nM | 1050 nM | 71.6 nM
O=C(NCCN1CCN(C(c2ccccc2)c2ccc(Cl)cc2)CC1)c1ccccn1 (configuration not stated) | 504 nM | 49.8 nM | 540 nM
N#Cc1ccccc1N1CCN(CCNC(=O)c2ccccn2)CC1 | 616 nM | > 10000 nM | 74.8 nM
COc1ccccc1N1CCN(CCCNC(=O)c2ccccn2)CC1 | > 10000 nM | 128 nM | 40.1 nM
COc1ccc(N2CCN(CCCNC(=O)c3ccccn3)CC2)cc1 | > 10000 nM | > 10000 nM | > 10000 nM
O=C(NCCN1CCN(c2ccccc2Cl)CC1)c1ccccn1 | > 10000 nM | 268 nM | 412 nM
O=C(NCCCN1CCN(c2cccc(Cl)c2)CC1)c1ccccn1 | 80.7 nM | 101 nM | 59.5 nM
O=C(NCCN1CCN(Cc2ccc3c(c2)OCO3)CC1)c1ccccn1 | > 10000 nM | 61.2 nM | > 10000 nM
Cc1cccc(N2CCN(CCNC(=O)c3ccccn3)CC2)c1C | > 10000 nM | > 10000 nM | 215 nM
O=C(NCCN1CCN(C(=O)c2ccco2)CC1)c1ccccn1 | > 10000 nM | > 10000 nM | > 10000 nM
O=C(NCCCN1CCN(c2cccc3ccccc23)CC1)c1ccccn1 | 213 nM | > 10000 nM | 44.1 nM
O=C(NCCN1CCN(c2ccccn2)CC1)c1ccccn1 | > 10000 nM | > 10000 nM | 32.7 nM
O=C(NCCCN1CCN(c2cccc(C(F)(F)F)c2)CC1)c1ccccn1 | > 10000 nM | > 10000 nM | 17.9 nM
O=C(NCCN1CCN(c2cccc(Cl)c2)CC1)c1ccccn1 | 309 nM | 90.9 nM | 267 nM
CCOc1ccccc1N1CCN(CCCNC(=O)c2ccccn2)CC1 | 119 nM | 80 nM | 85.6 nM
O=C(NCCCN1CCN(c2ccccc2)CC1)c1ccccn1 | 277 nM | 111 nM | 104 nM
O=C(NCCCN1CCN(c2ccc(Cl)cc2)CC1)c1ccccn1 | 371 nM | 39.7 nM | 68 nM
O=C(NCCN1CCN(c2cccc3ccccc23)CC1)c1ccccn1 | 91.1 nM | 116 nM | 20.8 nM
O=C(NCCCN1CCN(c2ccccn2)CC1)c1ccccn1 | > 10000 nM | 140 nM | 495 nM
O=C(NCCN1CCN(C(c2ccc(F)cc2)c2ccc(F)cc2)CC1)c1ccccn1 | – | – | > 10000 nM
O=C(NCCCN1CCN(C(c2ccccc2)c2ccc(Cl)cc2)CC1)c1ccccn1 (configuration not stated) | 725 nM | > 10000 nM | 443 nM
CCOc1ccccc1N1CCN(CCNC(=O)c2ccccn2)CC1 | > 10000 nM | > 10000 nM | 55.4 nM
O=C(NCCN1CCN(c2ccc(F)cc2)CC1)c1ccccn1 | 241 nM | 79.4 nM | 82 nM
O=C(NCCN1CCN(c2ccccc2F)CC1)c1ccccn1 | > 10000 nM | > 10000 nM | 158 nM
